Measurements: patent publication US7348425B2, “Inhibitors of HCV replication” (Bristol-Myers Squibb Company, priority 2004, dated 2008)

Columns and labels:
[1] = molecular target: T1, HCV NS5B RdRp genotype 1b (Hepatitis C virus genotype 1b, UniProt Q9WMX2); assay: Modified HCV NS5B RdRp enzyme assay (with preincubation); type: biochemical
T1 construct: The protein was expressed with an 18 amino acid C-terminal truncation to enhance the solubility; made in house; host or cells: E. coli BL21 (DE3), pET21a
In short: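 Seven-point IC50s were derived from SPA-based ³H-UTP incorporation after 4 h at 30 °C (Hepes pH 7.5, 2% DMSO). Compound was first mixed with 14 nM Δ18 NS5B genotype 1b enzyme. Then 0.2 nM polyA, 0.29 μM UTP and bead-bound oligo-dT12 (20 nM) were added.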

HCV replicon = HCV replicon FRET assay; type: cell-based; conditions: Hepatitis C virus; FRET assay; read-out: EC50
In short: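 Replicon cells (± Renilla luciferase reporter) incubated with titrated compound at 37 °C; NS3 protease activity read by FRET peptide cleavage (20 uM EDANS/DABCYL substrate, 340/490 nm kinetic) or luciferase.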

[2] = modified method (with preincubation)

T1 sequence (Q9WMX2 2420-2992): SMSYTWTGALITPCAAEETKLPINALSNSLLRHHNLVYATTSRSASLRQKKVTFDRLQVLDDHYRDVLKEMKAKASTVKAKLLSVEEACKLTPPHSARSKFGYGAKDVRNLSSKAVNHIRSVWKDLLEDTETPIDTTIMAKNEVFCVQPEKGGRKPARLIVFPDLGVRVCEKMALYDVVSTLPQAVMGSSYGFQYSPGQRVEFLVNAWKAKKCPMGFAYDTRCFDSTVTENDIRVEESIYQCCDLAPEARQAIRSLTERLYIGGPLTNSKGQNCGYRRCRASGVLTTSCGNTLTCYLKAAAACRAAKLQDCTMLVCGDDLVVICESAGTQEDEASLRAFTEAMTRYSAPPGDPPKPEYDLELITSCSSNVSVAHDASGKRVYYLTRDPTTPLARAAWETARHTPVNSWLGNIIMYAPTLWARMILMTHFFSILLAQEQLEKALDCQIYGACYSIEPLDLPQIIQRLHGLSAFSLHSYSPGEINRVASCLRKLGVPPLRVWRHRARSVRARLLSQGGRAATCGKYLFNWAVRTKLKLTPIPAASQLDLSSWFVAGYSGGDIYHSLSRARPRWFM

## COc1ccc2c(c1)C=C(C(=O)N1CCC[C@@H](O)C1)Cn1c-2c(C2CCCCC2)c2ccc(C(=O)NS(=O)(=O)N(C)C)cc21
[1]; preincubation protocol
  IC50: 10 to 1000 nM
HCV replicon
  EC50: 50 to 1000 nM

## C[C@@H]1CN(C(=O)C2(F)Cc3ccccc3-c3c(C4CCCCC4)c4ccc(C(=O)O)cc4n3C2)C[C@H](O)O1 (some centres unmarked)
[1]; preincubation protocol
  IC50: 10 to 1000 nM
HCV replicon
  EC50: 1000 to 10000 nM

## CNS(=O)(=O)NC(=O)c1ccc2c(C3CCCCC3)c3n(c2c1)CC(C(=O)N1C[C@@H](C)O[C@@H](C)C1)Cc1ccccc1-3 (some centres unmarked)
[1]; preincubation protocol
  IC50: 10 to 1000 nM
HCV replicon
  EC50: 50 to 1000 nM

## COC(=O)C1=Cc2c(OC)cccc2-c2c(C3CCCCC3)c3ccc(C(=O)OC)cc3n2C1
[1]; preincubation protocol
  IC50: > 4000 nM
HCV replicon
  EC50: > 3300 nM

## COC(=O)c1ccc2c(C3CCCCC3)c3n(c2c1)CC(C(=O)O)=Cc1c(OC)cccc1-3
[1]; preincubation protocol
  IC50: 1000 to 10000 nM
HCV replicon
  EC50: 1000 to 10000 nM

## COC(=O)c1ccc2c(C3CCCCC3)c3n(c2c1)CC(C(=O)N1C[C@@H](C)O[C@@H](C)C1)=Cc1cc(OC)ncc1-3
[1]; preincubation protocol
  IC50: > 1000 nM
HCV replicon
  EC50: > 1000 nM

## COc1cccc2c1C=C(C(=O)N1C[C@@H](C)O[C@@H](C)C1)Cn1c-2c(C2CCCCC2)c2ccc(C(=O)O)cc21
[1]; preincubation protocol
  IC50: 10 to 1000 nM
HCV replicon
  EC50: 50 to 1000 nM

## COc1cccc2c1C=C(C(=O)N1C[C@@H](C)O[C@@H](C)C1)Cn1c-2c(C2CCCCC2)c2ccc(C(=O)NS(=O)(=O)N(C)C)cc21
[1]; preincubation protocol
  IC50: 10 to 1000 nM
HCV replicon
  EC50: 50 to 1000 nM

## COC(=O)c1ccc2c(C3CCCCC3)c3n(c2c1)C(O)c1cc(OC)ccc1-3 (centres unmarked)
[1]; preincubation protocol
  IC50: > 1000 nM
HCV replicon
  EC50: > 100 nM

## COC(=O)c1ccc2c(C3CCCCC3)c3n(c2c1)C(O)c1cc(OCc2ccccc2)ccc1-3 (centres unmarked)
[1]; preincubation protocol
  IC50: 1000 to 10000 nM
HCV replicon
  EC50: > 100 nM

## COC(=O)/C=C/c1ccc(NC(=O)C2(NC(=O)c3ccc4c(C5CCCCC5)c5n(c4c3)CC(=O)Nc3cccnc3-5)CCCC2)cc1 [drawing 159]
[1]; [2]
  IC50: 20 to 1000 nM
HCV replicon
  EC50: < 100 nM

## O=C(O)/C=C/c1ccc(NC(=O)C2(NC(=O)c3ccc4c(C5CCCCC5)c5n(c4c3)CCCc3ccccc3-5)CCNCC2)cc1 [drawing 160]
[1]; [2]
  IC50: 20 to 1000 nM
HCV replicon
  EC50: 10 to 1000 nM

## COC(=O)c1ccc2c(C3CCCCC3)c3n(c2c1)CC(C(=O)OCc1ccccc1)=Cc1ccccc1-3 [drawing 223]
[1]; [2]
  IC50: > 1000 nM
HCV replicon
  EC50: 1000 to 10000 nM

## O=C(NS(=O)(=O)C1CC1)c1ccc2c(C3CCCCC3)c3n(c2c1)CC(C(=O)N1CCOCC1)Cc1ccccc1-3 (centres unmarked) [drawing 287]
[1]; [2]
  IC50: 20 to 1000 nM
HCV replicon
  EC50: 10 to 1000 nM

## CS(=O)(=O)NC(=O)c1ccc2c(C3CCCCC3)c3n(c2c1)CC(C(=O)N1CCOCC1)Cc1ccccc1-3 (centres unmarked) [drawing 303]
[1]; [2]
  IC50: 20 to 1000 nM
HCV replicon
  EC50: 10 to 1000 nM

## O=C(O)c1ccc2c(C3CCCCC3)c3n(c2c1)CC(C(=O)O)Cc1ccccc1-3 (centres unmarked) [drawing 305]
[1]; [2]
  IC50: 20 to 1000 nM
HCV replicon
  EC50: > 10000 nM
